Test results published in EP0933379B1, “NOVEL PEPTIDE DERIVATIVES HAVING THIAZOLYL-ALANINE RESIDUE” (SHIONOGI & CO., LTD., priority 1996, dated 1998).

What was measured:
[1] = Change of blood glucose levels after administration of the test compounds to rats; format: in vivo, male Wistar rats; details: for blood glucose level as a percentage compared to the baseline level: 50 µmol/kg intravenously, vehicle-treated rats = 100 %
Method: Fasted male Wistar rats (250-350 g) were anaesthesized with urethane. Test compounds were solubilized in saline and administered intravenously (50 µmol/kg). Body temperature of rats were kept at 37 °C by a hot blanket. After the administration, blood was collected from jugular vein at 5, 15, 30, 60, 120, 180, 240, 300, 360, 420, and 480 min and blood glucose levels were measured (BM Test blood sugar. Wako Chemical Indus.). The blood glucose levels at each sampling time in vehicle (saline)-treated rats were defined as the baseline level (100 %). […]

[2] = system: reserpine-induced hypothermia mice; assay: Anti-reserpine action after intravenous and intracerebroventricular administration of test compounds; format: in vivo, mice (ddY, male); details: calculated from AUC of rectal temperature over 180 min versus vehicle; for Dose which can increase the average of body temperatures at 1 °C for 180 min in reserpine-induced hypothermia mice, administered intracerebroventricularly: intracerebroventricular, 0.21 µmol/kg; for Dose which can increase the average of body temperatures at 1 °C for 180 min in reserpine-induced hypothermia mice, administered intravenously: intravenous, 1 µmol/kg
Method: Recerpine-induced hypothermia mice (ddY, male) were prepared by the administration of reserpine (3 mg/kg) at 18 hours before test compounds administration. Mice with their body temperature about 25 °C were used in the experiment. Test compounds were solubilized in saline and 0.1 ml (1 µmol/kg) of them were administered intravenously and 0.005 ml (0.21 µmol/kg) of them were administered intracerebroventricularly, respectively. After the administration, rectal temperature was measured at 30, 60, 120, and 180 min. The area under curve (AUC) of the body temperature-time profile was calculated by the general trapezoidal method. In the control experiment, vehicle (saline) was administered to mice intravenously or intracerebroventricularly and the rectal temperature was measured by the same protocol.
Effective dose: Dose which can increase the average of body temperatures at 1°C for 180 min in reserpine-induced hypothermia mice.

[3] = system: reserpine-induced hypothermia mice; assay: Anti-reserpine action after oral administration of test compounds; format: in vivo, mice (ddY, male); details: 10 µmol/kg in saline, calculated from AUC of rectal temperature over 420 min versus vehicle, reserpine 3 mg/kg s.c. 18 hours before
Method: Reserpine-induced hypothemia mice (ddY, male, body weight 30 to 40 g) were prepared by the subcutaneous administration of reserpine in back side of the […] (3 mg/kg) at 18 hours before test compounds administration. Mice with their body temperature about 25 °C were used in the experiment. Test compounds were solubilized in saline and 0.2 ml (10 µmol/kg) of them were administered by sonde for oral administration. After the administration, rectal temperature was measured at 30, 60, 120, 180, 240, 300, […]. The area under curve (AUC) of the body temperature-time profile was calculated by the general trapezoidal method. In the control experiment, vehicle (saline) was administered to mice and the rectal temperature was measured by the same protocol.
Effective dose: Dose which can increase the average of body temperatures at 1 °C for 420 min in reserpine-induced hypothermia mice.

[4] = time 0 min, fasted urethane-anaesthetized rats

| SMILES | blood glucose level as a percentage compared to the baseline level [1, 4] [%] | blood glucose level as a percentage compared to the baseline level ([1]; time 5 min) [%] | blood glucose level as a percentage compared to the baseline level ([1]; time 15 min) [%] | blood glucose level as a percentage compared to the baseline level ([1]; time 30 min) [%] | blood glucose level as a percentage compared to the baseline level ([1]; time 60 min) [%] | blood glucose level as a percentage compared to the baseline level ([1]; time 120 min) [%] | blood glucose level as a percentage compared to the baseline level ([1]; time 180 min) [%] | blood glucose level as a percentage compared to the baseline level ([1]; time 240 min) [%] | blood glucose level as a percentage compared to the baseline level ([1]; time 300 min) [%] | blood glucose level as a percentage compared to the baseline level ([1]; time 360 min) [%] | blood glucose level as a percentage compared to the baseline level ([1]; time 420 min) [%] | blood glucose level as a percentage compared to the baseline level ([1]; time 480 min) [%] | Dose which can increase the average of body temperatures at 1 °C for 180 min in reserpine-induced hypothermia mice, administered intracerebroventricularly [2] [µmol/kg] | Dose which can increase the average of body temperatures at 1 °C for 180 min in reserpine-induced hypothermia mice, administered intravenously [2] [µmol/kg] | Dose which can increase the average of body temperatures at 1 °C for 420 min in reserpine-induced hypothermia mice (by oral) [3] [µmol/kg] | acute rise of the blood glucose level and acute fall by the rebound ([1]; result in words, general description) |
| --- | --- | --- | --- | --- | --- | --- | --- | --- | --- | --- | --- | --- | --- | --- | --- | --- |
| C[C@H]1OC(=O)N[C@H]1C(=O)N[C@@H](Cc1cscn1)C(=O)N1CCC[C@H]1C(N)=O (mixture of isomers) [I-10, cis-L-5-methyl-2-oxo-oxazolidine-4-yl-carbonyl-3-(4-thiazolyl)-L-alanyl-L-prolineamide] | 107.7 | 119.9 | 104.3 | 109.1 | 112.1 | 126.5 | 105.3 | 110.9 | 104.0 | 100.4 | 102.6 | 111.8 | 0.025 | 0.11 | 1.14 | – |
| C[C@H]1OC(=O)N(CN2CCOCC2)[C@H]1C(=O)N[C@@H](Cc1cscn1)C(=O)N1CCC[C@H]1C(N)=O (mixture of isomers) [I-40, cis-L-3-morpholinomethyl-5-methyl-2-oxo-oxazolidine-4-yl-carbonyl-3-(4-thiazolyl)-L-alanyl-L-prolineamide] | – | – | – | – | – | – | – | – | – | – | – | – | – | – | 1.65 | – |
| CN1C(=O)C[C@@H](C(=O)N[C@@H](Cc2cscn2)C(=O)N2CSC[C@H]2C(N)=O)NC1=O [I-5] | – | – | – | – | – | – | – | – | – | – | – | – | – | – | 1.22 | – |
| C[C@@H]1OC(=O)N[C@@H]1C(=O)N[C@@H](Cc1cscn1)C(=O)N1CSC[C@H]1C(N)=O [I-11] | – | – | – | – | – | – | – | – | – | – | – | – | – | – | 2.03 | – |
| CC(C)OC(=O)CNC(=O)[C@@H]1CCCN1C(=O)[C@H](Cc1cscn1)NC(=O)[C@H]1NC(=O)O[C@H]1C [I-30] | – | – | – | – | – | – | – | – | – | – | – | – | – | – | 2.59 | – |
| NC(=O)[C@@H]1CCCN1C(=O)[C@H](Cc1cnc[nH]1)NC(=O)[C@@H]1CCC(=O)N1 [TRH, L-pyroglutamyl-L-histidyl-L-prolineamide] | 116.3 | 114.6 | 123.3 | 137.9 | 153.5 | 139.1 | 119.1 | 112.6 | 113.2 | 103.5 | 102.6 | 97.1 | 0.033 | 9.84 | 42.68 | acutely raises up the blood glucose level |
